# Laboratory results reported in patent US6046171A, “6,11-bridged erythromycin derivatives” (priority 1998, dated 2000).
# Tests used:
# Assay type in all cases: cell-based
# [1] = tested on: Staphylococcus aureus ATCC 6538P; assay: in vitro antibacterial MIC, agar dilution (BHI agar, Steers replicator); details: organism code AA; 35-37° C., 20 to 24 hours; unit assumed
# Procedure: (§1) Representative compounds of the present invention were assayed in vitro for antibacterial activity as follows: Twelve petri dishes containing successive aqueous dilutions of the test compound mixed with 10 mL of sterilized Brain Heart Infusion (BHI) agar (Difco 0418-01-5) were prepared. Each plate was inoculated with 1:100 (or 1:10 for slow-growing strains, such as Micrococcus and Streptococcus) dilutions of up to 32 different microorganisms, using a Steers replicator block. […] In addition, a control plate, using BHI agar containing no test compound, was prepared and incubated at the beginning and end of each test.
# (§2) An additional plate containing a compound having known susceptibility patterns for the organisms being tested and belonging to the same antibiotic class as the test compound was also prepared and incubated as a further control, as well as to provide test-to-test comparability.
# (§3) After incubation, each plate was visually inspected. The minimum inhibitory concentration (MIC) was defined as the lowest concentration of drug yielding no growth, a slight haze, or sparsely isolated colonies on the inoculum spot as compared to the growth control.
# [2] = tested on: Streptococcus bovis A-5169; assay: in vitro antibacterial MIC, agar dilution; details: organism code JJ; 35-37° C., 20 to 24 hours; unit assumed
# Procedure: as §1, §2, §3
# [3] = tested on: Staphylococcus aureus A-5278; assay: in vitro antibacterial MIC, agar dilution; details: organism code CC; 35-37° C., 20 to 24 hours; unit assumed
# Procedure: as §1, §2, §3
# Escherichia coli JUHL = assay: in vitro antibacterial MIC, agar dilution; details: organism code QQ; 35-37° C., 20 to 24 hours; unit assumed
# Procedure: as §1, §2, §3
# [4] = tested on: Enterococcus faecium ATCC 8Q43; assay: in vitro antibacterial MIC, agar dilution; details: organism code II; 35-37° C., 20 to 24 hours; unit assumed
# Procedure: as §1, §2, §3
# [5] = tested on: Streptococcus pyogenes 930; assay: in vitro antibacterial MIC, agar dilution; details: organism code MM; 35-37° C., 20 to 24 hours; unit assumed
# Procedure: as §1, §2, §3
# [6] = tested on: Staphylococcus epidermidis 3519; assay: in vitro antibacterial MIC, agar dilution; details: organism code HH; 35-37° C., 20 to 24 hours; unit assumed
# Procedure: as §1, §2, §3
# [7] = tested on: Streptococcus Pheumoniae 5649; assay: in vitro antibacterial MIC, agar dilution; details: organism code ZZA; 35-37° C., 20 to 24 hours; unit assumed
# Procedure: as §1, §2, §3
# [8] = tested on: Streptococcus Pheumoniae GYR 1171; assay: in vitro antibacterial MIC, agar dilution; details: organism code YY; 35-37° C., 20 to 24 hours; unit assumed
# Procedure: as §1, §2, §3
# [9] = tested on: Nocardia Asteroides ATCC9970; assay: in vitro antibacterial MIC, agar dilution; details: organism code VV; 35-37° C., 20 to 24 hours; unit assumed
# Procedure: as §1, §2, §3
# [10] = tested on: Staphylococcus aureus NCTC10649M; assay: in vitro antibacterial MIC, agar dilution; details: organism code EE; 35-37° C., 20 to 24 hours; unit assumed
# Procedure: as §1, §2, §3
# Escherichia coli SS = assay: in vitro antibacterial MIC, agar dilution; details: organism code RR; 35-37° C., 20 to 24 hours; unit assumed
# Procedure: as §1, §2, §3
# [11] = tested on: Streptococcus Pheumoniae 5979; assay: in vitro antibacterial MIC, agar dilution; details: organism code ZZ; 35-37° C., 20 to 24 hours; unit assumed
# Procedure: as §1, §2, §3
# [12] = tested on: Streptococcus Pheumoniae ATCC6303; assay: in vitro antibacterial MIC, agar dilution; details: organism code XX; 35-37° C., 20 to 24 hours; unit assumed
# Procedure: as §1, §2, §3
# [13] = tested on: Staphylococcus aureus 1775; assay: in vitro antibacterial MIC, agar dilution; details: organism code GG; 35-37° C., 20 to 24 hours; unit assumed
# Procedure: as §1, §2, §3
# [14] = tested on: Micrococcus luteus ATCC 9341; assay: in vitro antibacterial MIC, agar dilution; details: organism code OO; 35-37° C., 20 to 24 hours; unit assumed
# Procedure: as §1, §2, §3
# [15] = tested on: Staphylococcus aureus CMX 642A; assay: in vitro antibacterial MIC, agar dilution; details: organism code DD; 35-37° C., 20 to 24 hours; unit assumed
# Procedure: as §1, §2, §3
# [16] = tested on: Haemophilis Influenzae DILL AMP R; assay: in vitro antibacterial MIC, agar dilution; details: organism code WW; 35-37° C., 20 to 24 hours; unit assumed
# Procedure: as §1, §2, §3
# [17] = tested on: Streptococcus pyogenes PIU 2548; assay: in vitro antibacterial MIC, agar dilution; details: organism code NN; 35-37° C., 20 to 24 hours; unit assumed
# Procedure: as §1, §2, §3
# Escherichia coli DC-2 = assay: in vitro antibacterial MIC, agar dilution; details: organism code SS; 35-37° C., 20 to 24 hours; unit assumed
# Procedure: as §1, §2, §3
# [18] = tested on: Micrococcus luteus ATCC 4698; assay: in vitro antibacterial MIC, agar dilution; details: organism code PP; 35-37° C., 20 to 24 hours; unit assumed
# Procedure: as §1, §2, §3
# [19] = tested on: Staphylococcus aureus CMX 553; assay: in vitro antibacterial MIC, agar dilution; details: organism code FF; 35-37° C., 20 to 24 hours; unit assumed
# Procedure: as §1, §2, §3
# [20] = tested on: Mycobacterium smegmatis ATCC 114; assay: in vitro antibacterial MIC, agar dilution; details: organism code UU; 35-37° C., 20 to 24 hours; unit assumed
# Procedure: as §1, §2, §3
# [21] = tested on: Streptococcus agalactiae CMX 508; assay: in vitro antibacterial MIC, agar dilution; details: organism code KK; 35-37° C., 20 to 24 hours; unit assumed
# Procedure: as §1, §2, §3
# [22] = tested on: Streptococcus pyogenes EES61; assay: in vitro antibacterial MIC, agar dilution; details: organism code LL; 35-37° C., 20 to 24 hours; unit assumed
# Procedure: as §1, §2, §3
# [23] = tested on: Staphylococcus aureus A5177; assay: in vitro antibacterial MIC, agar dilution; details: organism code BB; 35-37° C., 20 to 24 hours; unit assumed
# Procedure: as §1, §2, §3
# Candida albicans CCH 442 = assay: in vitro MIC, agar dilution; details: organism code TT; 35-37° C., 20 to 24 hours; unit assumed
# Procedure: as §1, §2, §3
SMILES,MIC [1] [µg/mL],MIC [2] [µg/mL],MIC [3] [µg/mL],MIC (Escherichia coli JUHL) [µg/mL],MIC [4] [µg/mL],MIC [5] [µg/mL],MIC [6] [µg/mL],MIC [7] [µg/mL],MIC [8] [µg/mL],MIC [9] [µg/mL],MIC [10] [µg/mL],MIC (Escherichia coli SS) [µg/mL],MIC [11] [µg/mL],MIC [12] [µg/mL],MIC [13] [µg/mL],MIC [14] [µg/mL],MIC [15] [µg/mL],MIC [16] [µg/mL],MIC [17] [µg/mL],MIC (Escherichia coli DC-2) [µg/mL],other results
CC[C@H]1OC(=O)[C@H](C)C(=O)[C@H](C)[C@@H](O[C@@H]2O[C@H](C)C[C@H](N(C)C)[C@H]2O)[C@@]2(C)C[C@@H](C)C(=O)[C@H](C)[C@H]3N(CCNC(=O)c4ccccc4C=CCO2)C(=O)O[C@]13C [Example 21],1.56,0.1,> 100,> 100,0.2,> 100,1.56,2,0.25,0.39,3.1,1.56,> 128,0.25,> 100,0.2,3.1,64,0.78,> 100,MIC [18]: 0.39 µg/mL; MIC [19]: 3.1 µg/mL; MIC [20]: 6.2 µg/mL; MIC [21]: 0.1 µg/mL; MIC [22]: 0.1 µg/mL; MIC [23]: 1.56 µg/mL; MIC (Candida albicans CCH 442): > 100 µg/mL
CC[C@H]1OC(=O)[C@H](C)[C@@H](O[C@H]2C[C@@](C)(OC)[C@@H](O)[C@H](C)O2)[C@H](C)[C@@H](O[C@@H]2O[C@H](C)C[C@H](N(C)C)[C@H]2O)[C@@]2(C)C[C@@H](C)C(=O)[C@H](C)[C@H]3N(CC(O)CCCCO2)C(=O)O[C@]13C (stereo partly drawn) [Example 22],1.56,0.05,> 100,100,0.2,> 100,1.56,16,0.06,0.1,1.56,0.78,> 128,0.06,> 100,0.1,1.56,4,12.5,> 100,MIC [18]: 0.39 µg/mL; MIC [19]: 1.56 µg/mL; MIC [20]: 0.78 µg/mL; MIC [21]: 0.1 µg/mL; MIC [22]: 0.1 µg/mL; MIC [23]: 12.5 µg/mL; MIC (Candida albicans CCH 442): > 100 µg/mL
CC[C@H]1OC(=O)[C@H](C)[C@@H](O[C@H]2C[C@@](C)(OC)[C@@H](O)[C@H](C)O2)[C@H](C)[C@@H](O[C@@H]2O[C@H](C)C[C@H](N(C)C)[C@H]2O)[C@@]2(C)C[C@@H](C)C(=O)[C@H](C)[C@H]3N(CCNC(=O)c4ccccc4CC=CCO2)C(=O)O[C@]13C [Example 24],0.78,0.1,> 100,100,0.2,> 100,1.56,16,0.03,0.1,1.56,6.2,128,0.03,> 100,0.1,1.56,16,12.5,> 100,MIC [18]: 1.56 µg/mL; MIC [19]: 0.78 µg/mL; MIC [20]: 0.39 µg/mL; MIC [21]: 0.1 µg/mL; MIC [22]: 0.1 µg/mL; MIC [23]: 25 µg/mL; MIC (Candida albicans CCH 442): > 100 µg/mL
